According to patent publication US9062043B2, “Fused tricyclic compounds as serine-threonine protein kinase and PARP modulators” (SENHWA BIOSCIENCES, INC., priority 2006, dated 2015):
Where two headings read alike, the source gives them in different places.

What was measured:
[1] = tested on: HCT-116 human colorectal carcinoma cells; assay: Cell proliferation assay, Alamar Blue, HCT-116; assay type: cell-based;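 note: cells exposed to compound for about 4 days, then Alamar Blue added and fluorescence read after about 4 h, medium-only wells as control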
PARP = PARP (Homo sapiens (Human), UniProt P09874); assay: PARP assay (chemiluminescent PARP assay kit, Trevigen); assay type: biochemical; details: for inhibition at 20 µM: read-out: PARP % inhib @ 20 uM
Method: Modulatory activity of compounds described herein was assessed in vitro in cell-free CK2 assays. Modulatory activity of compounds described herein also are assessed in vitro in cell-free PARP assays. These assays are described hereafter.
PARP assays are conducted using a chemiluminescent PARP assay kit (Trevigen). Briefly, reactions are performed in Histone-coated strip wells, by adding 10 microliters test compound dissolved in 1×PARP Buffer (prepared by mixing 20×PARP buffer diluted with high-purity water) and 15 microliters diluted PARP-HSA enzyme (diluted in 1× PARP buffer, 0.1 unit per well) to 25 microliters PARP cocktail (prepared from 10×PARP cocktail and 10× activated DNA, both 2.5 microliters per well and 20 microliters per well of 1×PARP buffer). The reactions are incubated at ambient temperature for 60 minutes, then the liquid was removed. After washing the wells four times with PBS (200 ul), 50 microliters of STREP-HRP (Horseradish Peroxidase) solution (diluted 500-fold in 1× Strep-Diluent) was added and the reactions were allowed to incubate for 30 minutes at ambient temperature. The liquid was removed and, after washing the wells four times with PBS (200 ul), 50 microliters each of PeroxyGlo A and B (Chemiluminescent Horseradish Peroxidase substrates) are added and the resulting chemiluminescence quantified on the SpectraMax M5 plate reader.

[2] = HCT-116, Table 16, first HCT-116 column
[3] = 1 uM, Table 12, read-out: PARP % inhib @ 1 uM
[4] = at 1 μM, Table 10, read-out: PARP Inhibition %
[5] = HCT-116, Table 16, second HCT-116 column

Sequence of PARP (P09874 whole entry): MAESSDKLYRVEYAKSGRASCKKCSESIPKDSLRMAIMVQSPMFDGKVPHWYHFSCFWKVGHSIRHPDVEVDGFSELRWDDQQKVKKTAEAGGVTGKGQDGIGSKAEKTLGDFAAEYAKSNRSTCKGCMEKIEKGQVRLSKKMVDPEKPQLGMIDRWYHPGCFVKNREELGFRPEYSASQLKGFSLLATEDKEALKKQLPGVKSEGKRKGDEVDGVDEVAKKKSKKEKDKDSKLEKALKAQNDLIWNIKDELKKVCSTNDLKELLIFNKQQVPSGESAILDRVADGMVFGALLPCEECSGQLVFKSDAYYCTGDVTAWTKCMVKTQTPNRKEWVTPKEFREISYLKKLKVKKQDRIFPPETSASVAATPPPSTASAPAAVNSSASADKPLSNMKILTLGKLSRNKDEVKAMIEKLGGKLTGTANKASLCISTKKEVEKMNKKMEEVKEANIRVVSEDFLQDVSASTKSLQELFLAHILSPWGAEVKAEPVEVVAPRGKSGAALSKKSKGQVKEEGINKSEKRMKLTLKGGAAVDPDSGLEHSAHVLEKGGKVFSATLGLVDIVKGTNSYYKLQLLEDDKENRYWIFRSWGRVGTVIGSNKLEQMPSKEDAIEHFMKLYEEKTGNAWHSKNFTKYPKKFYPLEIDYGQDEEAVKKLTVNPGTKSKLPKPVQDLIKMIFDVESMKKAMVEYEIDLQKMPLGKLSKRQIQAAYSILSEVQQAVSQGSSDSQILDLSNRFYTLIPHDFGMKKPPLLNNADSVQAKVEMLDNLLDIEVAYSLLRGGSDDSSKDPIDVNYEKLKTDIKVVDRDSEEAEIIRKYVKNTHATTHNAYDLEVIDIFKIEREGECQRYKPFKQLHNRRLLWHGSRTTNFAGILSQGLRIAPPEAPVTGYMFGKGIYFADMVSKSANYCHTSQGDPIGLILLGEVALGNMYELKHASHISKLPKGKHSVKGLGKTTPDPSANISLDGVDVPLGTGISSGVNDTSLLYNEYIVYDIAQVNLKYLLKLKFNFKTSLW

Structure (SMILES) | IC50 [1, 2] | inhibition at 1 µM (PARP; [3]) | further results
N#Cc1ccc2c(c1)nc(Cl)c1ccsc12 | > 10 µM | – | –
O=c1[nH]c2ccccc2c2sccc12 | – | – | inhibition at 20 µM (PARP; Table 12): 0%
O=C(Nc1ccc(N2CCOCC2)cc1)c1ccc2c(c1)[nH]c(=O)c1ccsc12 | – | 0% | inhibition at 20 µM (PARP; Table 12): 37%
O=C(O)c1ccc2c(c1)nc(Nc1ccccc1)c1ccccc12 | – | – | inhibition at 1 µM (PARP; [4]): 9%
Cc1cc(CNC(=O)c2ccc3c(c2)[nH]c(=O)c2ccsc23)no1 | – | 67% | IC50 (PARP; Table 12): 500 nM
O=C(O)c1ccc2c(c1)[nH]c(=O)c1ccsc12 | – | 58% | inhibition at 20 µM (PARP; Table 12): 90%; IC50 (PARP; Table 12): 1000 nM
COC(=O)c1ccc2c3sccc3c(=O)n(CCCO)c2c1 | – | 40% | –
CN(c1ccccc1)c1nc2cc(C(=O)O)ccc2c2sccc12 | > 10 µM | – | –
O=C(O)c1ccc2c(c1)nc(NC1CC1)c1ccsc12 | > 10 µM | – | –
O=C(O)c1ccc2c(c1)nc(NCCN1CCCC1)c1ccsc12 | > 10 µM | – | –
O=c1[nH]c2cc(CO)ccc2c2sccc12 | – | 74% | IC50 (PARP; Table 12): 400 nM
O=C(O)c1ccc2c(c1)nc(NCCN1CCOCC1)c1ccsc12 | > 10 µM | – | –
O=C(Nc1ccccc1C(=O)O)c1ccc2c(c1)[nH]c(=O)c1ccsc12 | – | 12% | –
NC1CCN(C(=O)c2ccc3c(c2)[nH]c(=O)c2ccsc23)CC1 | – | 96% | IC50 (PARP; Table 12): 20 nM
O=C(O)CNc1nc2cc(C(=O)O)ccc2c2sccc12 | > 10 µM | – | –
COC(=O)c1ccc2c(c1)nc(Cl)c1ccsc12 [drawing 552] | – | 18% | –
CCCNC(=O)c1ccc2c(c1)[nH]c(=O)c1ccsc12 | – | 65% | inhibition at 20 µM (PARP; Table 12): 88%; IC50 (PARP; Table 12): 1000 nM
O=C(O)c1ccc2c(c1)nc(Nc1cccc(C(=O)NC3CC3)c1)c1ccsc12 | – | – | IC50 [1, 5]: > 10 µM
COc1ccc(Nc2nc3cc(C(=O)O)ccc3c3sccc23)cc1Cl | > 10 µM | – | –
O=C(NCc1ccccc1)c1ccc2c(c1)[nH]c(=O)c1ccsc12 | – | 36% | –
O=C(O)c1ccc2c(c1)nc(NCCO)c1ccsc12 | > 10 µM | – | –
O=C(O)CCNC(=O)c1ccc2c(c1)[nH]c(=O)c1ccsc12 | – | 35% | inhibition at 20 µM (PARP; Table 12): 95%
COc1ccccc1Nc1nc2cc(C(=O)O)ccc2c2sccc12 | > 10 µM | – | –
NC(=O)c1ccc2c(c1)nc(Nc1ccccc1)c1ccsc12 | 9 µM | – | –

Structure (SMILES) | IC50 [1, 2] | inhibition at 1 µM (PARP; [3]) | further results
CC(C)(C)OC(=O)NC1CCN(C(=O)c2ccc3c(c2)[nH]c(=O)c2ccsc23)CC1 | – | 49% | –
CN(C)CCNC(=O)c1ccc2c(c1)[nH]c(=O)c1ccsc12 | – | – | inhibition at 20 µM (PARP; Table 12): 85%
O=C(O)c1ccc2c(c1)nc(Nc1cccc(Oc3ccccc3)c1)c1ccsc12 | – | – | IC50 [1, 5]: > 10 µM
COC(=O)c1ccc2c(c1)nc(Cl)c1ccsc12 [drawing 842] | > 10 µM | – | –
O=C(NCCN1CCOCC1)c1ccc2c(c1)[nH]c(=O)c1ccsc12 | – | 77% | inhibition at 20 µM (PARP; Table 12): 96%; IC50 (PARP; Table 12): 500 nM
O=C(O)CNC(=O)c1cccc(Nc2nc3cc(C(=O)O)ccc3c3sccc23)c1 | – | – | IC50 [1, 5]: > 10 µM
COc1ccc(CNC(=O)c2ccc3c(c2)[nH]c(=O)c2ccsc23)cc1 | – | 45% | –
O=C(O)c1ccc2c(c1)nc(NCc1ccncc1)c1ccsc12 | > 10 µM | – | –
CC(C)(C)OC(=O)CCNC(=O)c1ccc2c(c1)[nH]c(=O)c1ccsc12 | – | 40% | inhibition at 20 µM (PARP; Table 12): 82%
Fc1ccc(Nc2nc3cc(-c4nnn[nH]4)ccc3c3sccc23)cc1Cl | > 10 µM | – | –
O=C(O)CNC(=O)c1ccc2c(c1)[nH]c(=O)c1ccsc12 | – | 31% | inhibition at 20 µM (PARP; Table 12): 97%
CCOc1cccc(Nc2nc3cc(-c4nnn[nH]4)ccc3c3sccc23)c1 | – | – | IC50 [1, 5]: > 10 µM
COC(=O)c1ccc2c(c1)[nH]c(=O)c1ccsc12 | – | 27% | inhibition at 20 µM (PARP; Table 12): 84%
O=C(O)c1ccc2c(c1)nc(Nc1ccc(N3CCOCC3)cc1)c1ccsc12 | > 10 µM | – | –
Fc1ccc(Nc2nc3cc(-c4nnn[nH]4)ccc3c3sccc23)cc1 | > 10 µM | – | –
COc1ccccc1CNC(=O)c1ccc2c(c1)[nH]c(=O)c1ccsc12 | – | 27% | –
CCc1cccc(Nc2nc3cc(-c4nnn[nH]4)ccc3c3sccc23)c1 | – | – | IC50 [1, 5]: > 10 µM
CN(C)CCNc1nc2ccccc2c2sccc12 | 2 µM | – | –
COc1ccccc1NC(=O)c1ccc2c(c1)[nH]c(=O)c1ccsc12 | – | 0% | inhibition at 20 µM (PARP; Table 12): 24%
Clc1nc2ccccc2c2sccc12 | > 10 µM | – | –
CCCNC(=O)c1cccc(Nc2nc3cc(C(=O)O)ccc3c3sccc23)c1 | – | – | IC50 [1, 5]: > 10 µM
COc1cc(Nc2nc3cc(-c4nnn[nH]4)ccc3c3sccc23)ccc1F | – | – | IC50 [1, 5]: > 10 µM
O=c1[nH]c2cc(-c3nn[nH]n3)ccc2c2sccc12 | – | 39% | –
C#Cc1cccc(Nc2nc3cc(C(=O)O)ccc3c3sccc23)c1 [drawing 967] | – | – | IC50 [1, 5]: > 10 µM

Structure (SMILES) | IC50 [1, 2] | inhibition at 1 µM (PARP; [3]) | further results
COC(=O)c1ccc2c(c1)nc(Nc1ccccc1)c1ccsc12 | > 10 µM | – | –
N#Cc1ccc2c(c1)[nH]c(=O)c1ccsc12 | – | 51% | IC50 (PARP; Table 12): 500 nM
O=C(O)c1ccc2c3sccc3c(=O)n(CCCO)c2c1 | – | 21% | –
O=C(O)c1ccc2c(c1)nc(N1CCOCC1)c1ccsc12 | > 10 µM | – | –
O=C(NC1CC1)c1ccc2c(c1)[nH]c(=O)c1ccsc12 | – | 69% | inhibition at 20 µM (PARP; Table 12): 90%; IC50 (PARP; Table 12): 500 nM
O=C(O)c1ccc2c(c1)nc(Nc1cccc(C(=O)N3CCOCC3)c1)c1ccsc12 | – | – | IC50 [1, 5]: > 10 µM
O=C(Nc1cccnc1)c1ccc2c(c1)[nH]c(=O)c1ccsc12 | – | 0% | inhibition at 20 µM (PARP; Table 12): 62%
CN(C)CCNC(=O)c1cccc(Nc2nc3cc(C(=O)O)ccc3c3sccc23)c1 | – | – | IC50 [1, 5]: > 10 µM
O=C(NCCc1ccccn1)c1ccc2c(c1)[nH]c(=O)c1ccsc12 | – | 55% | inhibition at 20 µM (PARP; Table 12): 83%; IC50 (PARP; Table 12): 1000 nM
O=C(NCc1ccncc1)c1ccc2c(c1)[nH]c(=O)c1ccsc12 | – | 75% | IC50 (PARP; Table 12): 1000 nM
N#Cc1ccc2c(c1)nc(Nc1ccccc1)c1ccsc12 | > 10 µM | – | –
COC(=O)c1ccccc1NC(=O)c1ccc2c(c1)[nH]c(=O)c1ccsc12 | – | 24% | –
O=C(Nc1ccc(CN2CCS(=O)(=O)CC2)cc1)c1ccc2c(c1)[nH]c(=O)c1ccsc12 | – | 29% | –
CCN(c1ccccc1)c1nc2cc(C(=O)O)ccc2c2sccc12 | > 10 µM | – | –
COc1cccc(Nc2nc3cc(-c4nnn[nH]4)ccc3c3sccc23)c1 | > 10 µM | – | –
O=C(c1ccc2c(c1)[nH]c(=O)c1ccsc12)N1CCNCC1 | – | 96% | IC50 (PARP; Table 12): 30 nM
Cc1ccccc1Nc1nc2cc(C(=O)O)ccc2c2sccc12 | > 10 µM | – | –
CN(C)CCNc1nc2cc(C(=O)O)ccc2c2ccccc12 | – | – | inhibition at 1 µM (PARP; [4]): 15%
COC(=O)c1ccc2c(c1)nc(Nc1ccccc1)c1ncsc12 | – | – | IC50 [1, 5]: > 10 µM
COc1ccc(OC)c(Nc2nc3cc(C(=O)O)ccc3c3sccc23)c1 | > 10 µM | – | –
O=C(O)c1ccc2c(c1)nc(Nc1nc3ccccc3[nH]1)c1ccsc12 | > 10 µM | – | –
CN(C)CCNc1nc2cc(C#N)ccc2c2cnccc12 | – | – | IC50 ([1]; HCT-116, Table 18): 1.6 µM
O=C(O)c1ccc2c(c1)nc(Nc1cccc(O)c1)c1ccsc12 | > 10 µM | – | –
O=C(O)c1ccc2c(c1)nc(NCc1ccccn1)c1ccsc12 | > 10 µM | – | –

Structure (SMILES) | IC50 [1, 2] | inhibition at 1 µM (PARP; [3]) | further results
CN(C)CCn1c(=O)c2ccsc2c2ccc(C(=O)O)cc21 | – | 5% | –
Clc1ccc(Nc2nc3cc(-c4nnn[nH]4)ccc3c3sccc23)cc1 | > 10 µM | – | –
O=C(O)c1ccc2c(c1)nc(Nc1ccc(Cl)cc1)c1ccsc12 | > 10 µM | – | –
O=C(O)c1ccc2c(c1)nc(Nc1ccc(F)cc1)c1ccsc12 | > 10 µM | – | –
CN(C)CCNc1nc2cc(-c3nnn[nH]3)ccc2c2sccc12 | > 10 µM | – | –
COc1ccc(Nc2nc3cc(-c4nnn[nH]4)ccc3c3sccc23)cc1Cl | > 10 µM | – | –
O=C(O)c1ccc2c(c1)nc(NCCc1ccccc1)c1ccsc12 | > 10 µM | – | –
c1cc2c(Nc3ccc4c(c3)OCCO4)nc3cc(-c4nnn[nH]4)ccc3c2s1 | – | – | IC50 [1, 5]: > 10 µM
CN(C)CCNc1nc2cc(-c3nnn[nH]3)ccc2c2cnccc12 | – | – | IC50 ([1]; HCT-116, Table 18): > 10 µM
O=C(O)c1ccc2c(c1)nc(OCCCO)c1ccsc12 | > 10 µM | – | –
O=C(O)c1ccc2c(c1)nc(NCCCO)c1ccsc12 | > 10 µM | – | –
O=C(O)c1ccc2c(c1)nc(Nc1ccc(F)cc1F)c1ccsc12 | > 10 µM | – | –
c1ccc(Nc2nc3ccccc3c3sccc23)cc1 | > 10 µM | – | –
O=C(O)c1ccc2c(c1)nc(Nc1ccccc1O)c1ccsc12 | > 10 µM | – | –
CNc1ncc2c(n1)c(NC1CC1)nc1cc(C(=O)O)ccc12 | – | – | IC50 ([1]; HCT-116, Table 18): > 10 µM
O=C(O)c1ccc2c(c1)nc(N1CCCC1)c1ccsc12 | > 10 µM | – | –
O=C(NCCCO)c1ccc2c(c1)nc(NCCCO)c1ccsc12 | > 10 µM | – | –
COc1ccc(Nc2nc3cc(C(=O)O)ccc3c3sccc23)c(OC)c1 | > 10 µM | – | –
O=C(O)c1ccc2c(c1)nc(NCc1cccnc1)c1ccsc12 | > 10 µM | – | –
O=c1[nH]c(-c2ccc3c(c2)nc(Nc2ccccc2)c2ccsc23)no1 | > 10 µM | – | –
CC(C)Oc1cccc(Nc2nc3cc(-c4nnn[nH]4)ccc3c3sccc23)c1 | – | – | IC50 [1, 5]: > 10 µM
CS(=O)(=O)NC(=O)c1ccc2c(c1)nc(Nc1ccccc1)c1ccsc12 | > 10 µM | – | –
O=C(O)c1ccc2c(c1)nc(N1CCc3ccccc31)c1ccsc12 | > 10 µM | – | –
